According to ChEMBL document CHEMBL1124140, “Oxidants, oxidant drugs, and malaria” (J Med Chem, 1988):

Columns and labels:
Plasmodium falciparum [1] = experiment: (§1) Inhibitory activity against Chloroquine-sensitive Plasmodium falciparum; type: functional, organism-based
Plasmodium falciparum [2] = experiment: Inhibitory activity against chloroquine-resistant Plasmodium falciparum; type: functional, organism-based
Plasmodium falciparum [3] = experiment: as §1; type: functional; conditions: read-out: ED50 (the source's name)
Plasmodium falciparum [4] = experiment: Inhibitory activity against Chloroquine-resistant Plasmodium falciparum; type: functional; conditions: read-out: ED50 (the source's name)
Plasmodium falciparum [5] = experiment: (§2) In vitro inhibition against Plasmodium falciparum; type: functional, organism-based
Plasmodium falciparum [6] = experiment: In vitro inhibition against Plasmodium falciparum; […]; type: functional, organism-based
Plasmodium falciparum [7] = experiment: as §2; type: functional; conditions: read-out: ED50 (the source's name)

Q: How did the IC50 (Plasmodium falciparum [1]) turn out when CC(C)(C)OC(=O)OC1CCC2C[C@@H]3C=CC2(OO3)C1(C)C (some centres not stated) was run?
A: The IC50 was 190 nM.

Q: What about the IC50 (Plasmodium falciparum [2]) of the same molecule?
A: Its IC50 is 330 nM.

Q: CC(C)C12CCC(C)(CC1)OO2 was tested. Which EC50 (Plasmodium falciparum [3]) did it give?
A: The EC50 was 80 nM.

Q: What about the EC50 (Plasmodium falciparum [4]) of the same molecule?
A: The EC50 was 210 nM.

Q: Which IC50 (Plasmodium falciparum [5]) does the source give for CC(C)(C)COO here?
A: The IC50 was 41000 nM.

Q: With C[C@@H]1CC[C@H]2[C@@H](C)C(=O)O[C@@H]3O[C@@]4(C)CC[C@@H]1[C@]32OO4 [ARTEMISININ] as the molecule, how does the IC50 (Plasmodium falciparum [6]) read?
A: Its IC50 is 4 nM.

Q: Which EC50 (Plasmodium falciparum [7]) does the source give for CC1=C2[C@H]3OC(=O)[C@@H](C)[C@@H]3CC[C@@]2(C)C=CC1=O [SANTONIN] here?
A: The EC50 was 2800 nM.
